In patent US20020137929A1, “1 - (3-heterocyclylphenyl) isothiourea, -isourea, -guanidine and -amidine herbicidal agents” (Intellectual Property Department, BASF Aktiengesellschaft, priority 1998, published 2002):

Assays:
AMBEL (Ragweed, Common) = assay: Postemergence herbicidal evaluation; format: in vivo, Ambrosia artemisifolia
Summary of the method: (§1)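 Seedlings grown about two weeks were sprayed at 40 psi with compound dispersed in 50/50 acetone/water plus 0.5% TWEEN 20, at about 0.0156 to 0.500 kg/ha. Plants were kept in the greenhouse and scored 4–5 weeks later on a 0–9 visual scale against untreated controls.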

CASOB (Sicklepod) = assay: Postemergence herbicidal evaluation; format: in vivo, Cassia obtusifolia
Summary of the method: as §1

GALAP (Galium) [1] = assay: Postemergence herbicidal evaluation; format: in vivo, Galium aparine
Summary of the method: as §1

[2] = system: GLXMAW (Soybean, Williams); assay: Postemergence herbicidal evaluation; format: in vivo, Glycine max, (L.) Merr. cv Williams
Summary of the method: as §1

[3] = system: TRZAWR (Wheat, Winter, cv Riband); assay: Postemergence herbicidal evaluation; format: in vivo, Triticum aestivum
Summary of the method: as §1

GALAP (Galium) [4] = assay: Preemergence herbicidal evaluation; format: in vivo, Galium aparine; conditions: rated 4-5 weeks after treatment
Summary of the method: (§2)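 Each species is sown separately in potting soil over roughly an inch of soil before any emergence. The soil surface then receives an aqueous acetone spray delivering about 0.0156 to 0.500 kg/ha of compound. After four to five weeks, injury is scored from 0 to 9 relative to a control.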

SETVI (Foxtail, Green) = assay: Preemergence herbicidal evaluation; format: in vivo, Setaria viridis; conditions: rated 4-5 weeks after treatment
Summary of the method: as §2

ORYSAT (Rice, Tebonnet) = assay: Preemergence herbicidal evaluation; format: in vivo, Oryza sativa, (L.) Tebonnet; conditions: rated 4-5 weeks after treatment
Summary of the method: as §2

[5] = system: ECHORC (Watergrass (Calif.)); assay: Preemergence weed control under flooded paddy conditions; format: in vivo, Echinochloa oryzoides; conditions: rated 3-4 weeks after treatment
Summary of the method: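 First, seeds or propagules go into the top 0.5 cm of silt loam; next, water is held 1.5 to 3 cm over the soil; then compound (50/50 acetone/water) is pipetted into it at about 0.0313 to 0.500 kg/ha; finally plants are rated visually 0-9 after three to four weeks.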

CYPSE (Flatsedge) = assay: as above; format: in vivo, Cyperus serotinus; conditions: rated 3-4 weeks after treatment
Summary of the method: (§3)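 Greenhouse paddy assay. Acetone/water (50/50 v/v) solutions dosed into flood water, equivalent to about 0.0313 to 0.500 kg/ha active ingredient, over seeds planted 0.5 cm deep in silt loam. Score: 0-9 visual, based on stand, vigor, malformation, size and chlorosis, 3 to 4 weeks after treatment.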

MOOVA (Monochoria) = assay: as above; format: in vivo, Monochoria vaginalis; conditions: rated 3-4 weeks after treatment
Summary of the method: as §3

[6] = system: SAGPY (Arrowhead (Pygmaea)); assay: as above; format: in vivo, Sagittaria pygmaea; conditions: rated 3-4 weeks after treatment
Summary of the method: as §3

[7] = system: ECHORC (Watergrass (Calif.)); assay: Postemergence weed control under flooded paddy conditions; format: in vivo, Echinochloa oryzoides; conditions: postemergence weeds, 3-4 weeks after treatment
Summary of the method: (§4)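 Injury ratings (0–9 scale covering stand, vigor, malformation, size, chlorosis and overall appearance versus control) were made three to four weeks after treatment. Test material, about 0.0313 to 0.500 kg/ha a.i. in 50/50 v/v aqueous/acetone, was added to flood water 1.5 to 3 cm deep over 3 to 5 cm weeds and 1.5 to 2.5 leaf rice.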

[8] = system: SAGPY (Arrowhead (Pygmaea)); assay: as above; format: in vivo, Sagittaria pygmaea; conditions: postemergence weeds, 3-4 weeks after treatment
Summary of the method: as §4

SMILES: CCOC(=O)CN1C(=O)CSC1=Nc1cc(N2C(=O)C3=C(CCCC3)C2=O)c(F)cc1Cl [Compound 47, Ethyl 2-{[2-chloro-5-(1-cyclohexene-1,2-dicarboximido)-4-fluorophenyl]imino}-4-oxo-3-thiazolidineacetate]
- Postemergence herbicidal rating AMBEL (AMBEL (Ragweed, Common); Rate 0.0156 kg/ha): 3.0
- Postemergence herbicidal rating AMBEL (AMBEL (Ragweed, Common); Rate 0.0313 kg/ha): 9.0
- Postemergence herbicidal rating AMBEL (AMBEL (Ragweed, Common); Rate 0.0625 kg/ha): 9.0
- Postemergence herbicidal rating CASOB (CASOB (Sicklepod); Rate 0.0156 kg/ha): 0.0
- Postemergence herbicidal rating CASOB (CASOB (Sicklepod); Rate 0.0313 kg/ha): 2.0
- Postemergence herbicidal rating CASOB (CASOB (Sicklepod); Rate 0.0625 kg/ha): 2.0
- Postemergence herbicidal rating GALAP (GALAP (Galium) [1]; Rate 0.0156 kg/ha): 0.0
- Postemergence herbicidal rating GALAP (GALAP (Galium) [1]; Rate 0.0313 kg/ha): 3.0
- Postemergence herbicidal rating GALAP (GALAP (Galium) [1]; Rate 0.0625 kg/ha): 3.0
- Postemergence herbicidal rating GLXMAW ([2]; Rate 0.0156 kg/ha): 5.5
- Postemergence herbicidal rating GLXMAW ([2]; Rate 0.0313 kg/ha): 7.0
- Postemergence herbicidal rating GLXMAW ([2]; Rate 0.0625 kg/ha): 7.5
- Postemergence herbicidal rating TRZAWR ([3]; Rate 0.0156 kg/ha): 2.5
- Postemergence herbicidal rating TRZAWR ([3]; Rate 0.0313 kg/ha): 3.5
- Postemergence herbicidal rating TRZAWR ([3]; Rate 0.0625 kg/ha): 4.5
- Preemergence herbicidal rating GALAP (GALAP (Galium) [4]; rate 0.0156 kg/ha): 0.0
- Preemergence herbicidal rating GALAP (GALAP (Galium) [4]; rate 0.0313 kg/ha): 0.0
- Preemergence herbicidal rating GALAP (GALAP (Galium) [4]; rate 0.0625 kg/ha): 0.0
- Preemergence herbicidal rating GALAP (GALAP (Galium) [4]; rate 0.1250 kg/ha): 0.0
- Preemergence herbicidal rating GALAP (GALAP (Galium) [4]; rate 0.2500 kg/ha): 9.0
- Preemergence herbicidal rating SETVI (SETVI (Foxtail, Green); rate 0.0156 kg/ha): 0.0
- Preemergence herbicidal rating SETVI (SETVI (Foxtail, Green); rate 0.0313 kg/ha): 0.0
- Preemergence herbicidal rating SETVI (SETVI (Foxtail, Green); rate 0.0625 kg/ha): 0.0
- Preemergence herbicidal rating SETVI (SETVI (Foxtail, Green); rate 0.1250 kg/ha): 0.0
- Preemergence herbicidal rating SETVI (SETVI (Foxtail, Green); rate 0.2500 kg/ha): 4.0
- Preemergence herbicidal rating ORYSAT (ORYSAT (Rice, Tebonnet); rate 0.0156 kg/ha): 0.0
- Preemergence herbicidal rating ORYSAT (ORYSAT (Rice, Tebonnet); rate 0.0313 kg/ha): 0.0
- Preemergence herbicidal rating ORYSAT (ORYSAT (Rice, Tebonnet); rate 0.0625 kg/ha): 0.0
- Preemergence herbicidal rating ORYSAT (ORYSAT (Rice, Tebonnet); rate 0.1250 kg/ha): 0.0
- Preemergence herbicidal rating ORYSAT (ORYSAT (Rice, Tebonnet); rate 0.2500 kg/ha): 0.0
- Herbicidal rating ECHORC ([5]; 0.0313 kg/ha): 0.0
- Herbicidal rating ECHORC ([5]; 0.0625 kg/ha): 2.0
- Herbicidal rating ECHORC ([5]; 0.1250 kg/ha): 4.0
- Herbicidal rating ECHORC ([5]; 0.2500 kg/ha): 7.0
- Herbicidal rating CYPSE (CYPSE (Flatsedge); 0.0313 kg/ha): 0.0
- Herbicidal rating CYPSE (CYPSE (Flatsedge); 0.0625 kg/ha): 0.0
- Herbicidal rating CYPSE (CYPSE (Flatsedge); 0.1250 kg/ha): 0.0
- Herbicidal rating CYPSE (CYPSE (Flatsedge); 0.2500 kg/ha): 0.0
- Herbicidal rating MOOVA (MOOVA (Monochoria); 0.0313 kg/ha): 5.0
- Herbicidal rating MOOVA (MOOVA (Monochoria); 0.0625 kg/ha): 6.0
- Herbicidal rating MOOVA (MOOVA (Monochoria); 0.1250 kg/ha): 9.0
- Herbicidal rating MOOVA (MOOVA (Monochoria); 0.2500 kg/ha): 9.0
- Herbicidal rating SAGPY ([6]; 0.0313 kg/ha): 0.0
- Herbicidal rating SAGPY ([6]; 0.0625 kg/ha): 0.0
- Herbicidal rating SAGPY ([6]; 0.1250 kg/ha): 4.0
- Herbicidal rating SAGPY ([6]; 0.2500 kg/ha): 7.0
- Herbicidal rating ECHORC ([7]; rate 0.0313 kg/ha): 0.0
- Herbicidal rating ECHORC ([7]; rate 0.0625 kg/ha): 2.0
- Herbicidal rating ECHORC ([7]; rate 0.1250 kg/ha): 4.0
- Herbicidal rating ECHORC ([7]; rate 0.2500 kg/ha): 7.0
- Herbicidal rating SAGPY ([8]; rate 0.0313 kg/ha): 0.0
- Herbicidal rating SAGPY ([8]; rate 0.0625 kg/ha): 0.0
- Herbicidal rating SAGPY ([8]; rate 0.1250 kg/ha): 4.0
- Herbicidal rating SAGPY ([8]; rate 0.2500 kg/ha): 7.0

SMILES: O=C(O)CC1SC(=Nc2cc(N3C(=O)C4=C(CCCC4)C3=O)c(F)cc2Cl)N(CC(=O)O)C1=O (stereo not drawn) [Compound 48, 2-{[2-Chloro-5-(1-cyclohexene-1,2-dicarboximido)-4-fluorophenyl]imino}-4-oxo-3,5-thiazolidinediacetic acid]
- Postemergence herbicidal rating AMBEL (AMBEL (Ragweed, Common); Rate 0.0156 kg/ha): 3.0
- Postemergence herbicidal rating AMBEL (AMBEL (Ragweed, Common); Rate 0.0313 kg/ha): 5.0
- Postemergence herbicidal rating AMBEL (AMBEL (Ragweed, Common); Rate 0.0625 kg/ha): 9.0
- Postemergence herbicidal rating CASOB (CASOB (Sicklepod); Rate 0.0156 kg/ha): 0.0
- Postemergence herbicidal rating CASOB (CASOB (Sicklepod); Rate 0.0313 kg/ha): 2.0
- Postemergence herbicidal rating CASOB (CASOB (Sicklepod); Rate 0.0625 kg/ha): 3.0
- Postemergence herbicidal rating GALAP (GALAP (Galium) [1]; Rate 0.0156 kg/ha): 0.0
- Postemergence herbicidal rating GALAP (GALAP (Galium) [1]; Rate 0.0313 kg/ha): 0.0
- Postemergence herbicidal rating GALAP (GALAP (Galium) [1]; Rate 0.0625 kg/ha): 0.0
- Postemergence herbicidal rating GLXMAW ([2]; Rate 0.0156 kg/ha): 5.5
- Postemergence herbicidal rating GLXMAW ([2]; Rate 0.0313 kg/ha): 6.0
- Postemergence herbicidal rating GLXMAW ([2]; Rate 0.0625 kg/ha): 7.5
- Postemergence herbicidal rating TRZAWR ([3]; Rate 0.0156 kg/ha): 5.0
- Postemergence herbicidal rating TRZAWR ([3]; Rate 0.0313 kg/ha): 5.0
- Postemergence herbicidal rating TRZAWR ([3]; Rate 0.0625 kg/ha): 5.0
- Preemergence herbicidal rating GALAP (GALAP (Galium) [4]; rate 0.0156 kg/ha): 0.0
- Preemergence herbicidal rating GALAP (GALAP (Galium) [4]; rate 0.0313 kg/ha): 0.0
- Preemergence herbicidal rating GALAP (GALAP (Galium) [4]; rate 0.0625 kg/ha): 0.0
- Preemergence herbicidal rating GALAP (GALAP (Galium) [4]; rate 0.1250 kg/ha): 0.0
- Preemergence herbicidal rating GALAP (GALAP (Galium) [4]; rate 0.2500 kg/ha): 0.0
- Preemergence herbicidal rating SETVI (SETVI (Foxtail, Green); rate 0.0156 kg/ha): 0.0
- Preemergence herbicidal rating SETVI (SETVI (Foxtail, Green); rate 0.0313 kg/ha): 0.0
- Preemergence herbicidal rating SETVI (SETVI (Foxtail, Green); rate 0.0625 kg/ha): 0.0
- Preemergence herbicidal rating SETVI (SETVI (Foxtail, Green); rate 0.1250 kg/ha): 0.0
- Preemergence herbicidal rating SETVI (SETVI (Foxtail, Green); rate 0.2500 kg/ha): 0.0
- Preemergence herbicidal rating ORYSAT (ORYSAT (Rice, Tebonnet); rate 0.0156 kg/ha): 0.0
- Preemergence herbicidal rating ORYSAT (ORYSAT (Rice, Tebonnet); rate 0.0313 kg/ha): 0.0
- Preemergence herbicidal rating ORYSAT (ORYSAT (Rice, Tebonnet); rate 0.0625 kg/ha): 0.0
- Preemergence herbicidal rating ORYSAT (ORYSAT (Rice, Tebonnet); rate 0.1250 kg/ha): 0.0
- Preemergence herbicidal rating ORYSAT (ORYSAT (Rice, Tebonnet); rate 0.2500 kg/ha): 3.0
- Herbicidal rating ECHORC ([5]; 0.1250 kg/ha): 3.0
- Herbicidal rating ECHORC ([5]; 0.2500 kg/ha): 6.0
- Herbicidal rating CYPSE (CYPSE (Flatsedge); 0.1250 kg/ha): 0.0
- Herbicidal rating CYPSE (CYPSE (Flatsedge); 0.2500 kg/ha): 0.0
- Herbicidal rating MOOVA (MOOVA (Monochoria); 0.1250 kg/ha): 3.0
- Herbicidal rating MOOVA (MOOVA (Monochoria); 0.2500 kg/ha): 6.0
- Herbicidal rating SAGPY ([6]; 0.1250 kg/ha): 3.0
- Herbicidal rating SAGPY ([6]; 0.2500 kg/ha): 6.0
- Herbicidal rating ECHORC ([7]; rate 0.1250 kg/ha): 3.0
- Herbicidal rating ECHORC ([7]; rate 0.2500 kg/ha): 6.0
- Herbicidal rating SAGPY ([8]; rate 0.1250 kg/ha): 3.0
- Herbicidal rating SAGPY ([8]; rate 0.2500 kg/ha): 6.0
